Patent publication US20110039825A1, “LIGANDS OF ALPHA-ADRENOCEPTORS, DOPAMINE, HISTAMINE, IMIDAZOLINE AND SEROTONIN RECEPTORS AND THEIR USE” (Alla Chem, LLC, priority 2007, published 2011)

How the values were obtained:
male mice of BALB/c line [1] = experiment: Passive Avoidance of mice in the Shuttle Chamber, memory disturbed by Scopolamine; assay type: in vivo; details: Scopolamine 0.3 mg/kg
Method: A shuttle chamber (Ugo Basile, Italy) consisted of two sections was used. […] The sections were connected through a hole which could be overlapped by a vertical door. The floor was made of transverse metal bars on which DC current impulses could be fed. Experiments were carried out in aged male mice of BALB/c line weighing 20-24 grams.
Each group consisted of at least 8 animals. Animal was placed in light section, and latent period of the first entry into dark chamber was registered. Then the vertical door was closed and the animal was punished by 0.6 mA DC current for 3 seconds. After that it was taken back to its homecage. In 22-24 hours the same animal was placed again in light section of the shuttle chamber and latent period of its first entry into dark section, the total time of its stay in light section, and the number of entries into dark section, were registered. Each monitoring lasted for 5 minutes.
Testing was carried out during the day time in isolated laboratory using white noise at level of about 70 decibel above human hearing threshold.
Scopolamine causes the disturbance of training (memory loss) that results in […].

male mice of BALB/c line [2] = experiment: Mice Behavior in the Elevated Plus Maze; assay type: in vivo
Source text: The length of each arm of the maze was 30 cm, width is 5 cm, and height of the walls was 15 cm. Two opposite arms were closed from both sides and end faces by transparent walls, the other two arms were lit and opened. A mouse was placed in the center of the maze and for the next five minutes the number of entries into opened and closed arms and the time spent in each type of arms was registered. […] The animals usually avoided opened arms (the preference index is between 0.2 and 0.3). Compounds with tranquilizing action increased this index up to 0.5-0.6 or even more and reduced the number of defecations without changing the overall motion activity of the mice (the total number of their entries to the arms).

male mice of BALB/c line [3] = experiment: Passive Avoidance of mice in the Shuttle Chamber, memory disturbed by MK-801; assay type: in vivo; details: MK-801 0.1 mg/kg
Method: The testing was carried out as in example 14. […] Concurrently, physiological solution of MK-801 in combination with active ingredient 1.9 (1) 1/2NDSA was injected intraintestinally to independent group of mice before training

mice = experiment: Mice Training in Morris Water Maze (Scopolamine); assay type: in vivo; details: unitary introduction of active ingredient
Method: Mice Training in Morris Water Maze. A round pool which was filled with water at 20-22° C. was used. A round ceramic platform of 14 cm height was placed in the pool. Animals's behavior was registered with automated computer videosystem in combination with software package of movement analysis Any-maze (Stoelting Co., US). Before testing mice suitable for training were selected. That was done by placing the platform 1 cm above the water level and putting an animal on the platform for 20 seconds. Then the mouse was sunk into the water on the opposite side of the pool, allowed to find the platform and climbed it within 60 seconds, where it was left for additional 20 seconds. After that the mouse was repeatedly immersed into water on the opposite side of the pool and allowed to look for platform. If it failed in finding the platform within 60 seconds the experimentator helped it to find the platform and climb it. If the mice could not find the platform itself in two consecutive attempts it was excluded from experiment.
During the next two days the platform was placed 0.5 centimeter lower the water level. Every day the mice were given four attempts for finding the platform within 60 seconds. The time interval between the attempts was 20 seconds, during which the mice stayed on the platform. Every day before the first attempt mouse was placed on the platform for 20 seconds. The time needed for finding and climbing the platform was registered. The animals were sunk in water in 3 different places on the side of the pool opposite to platform. On each day of two-day testing 35-40 minutes before the beginning of training the mice were injected intraintestinally with physiological solution, Scopolamine or Scopolamine in combination with investigated compound. At least 8 animals were used in each group.
On the third day the platform was removed and each animal was placed one time in the pool for a period of 60 seconds. The time each mouse spent in the area where the platform had been located during the previous days was registered. This time interval was regarded as a measure of effectiveness of training fulfilled during the previous two days. The testing was carried out during the day time in isolated laboratory using “white noise” at level of about 70 decibel above the human hearing threshold.

recombinant human 5-HT1A = molecular target: T1, recombinant human 5-HT1A (Homo sapiens, UniProt P08908); experiment: radioligand binding to serotonin receptor 5-HT1A ([3H] 8-OH-DPAT); details: 10 μM ligand
T1 construct: expressed in transfected cells; host or cells: CHO
T1 sequence (P08908 1-422): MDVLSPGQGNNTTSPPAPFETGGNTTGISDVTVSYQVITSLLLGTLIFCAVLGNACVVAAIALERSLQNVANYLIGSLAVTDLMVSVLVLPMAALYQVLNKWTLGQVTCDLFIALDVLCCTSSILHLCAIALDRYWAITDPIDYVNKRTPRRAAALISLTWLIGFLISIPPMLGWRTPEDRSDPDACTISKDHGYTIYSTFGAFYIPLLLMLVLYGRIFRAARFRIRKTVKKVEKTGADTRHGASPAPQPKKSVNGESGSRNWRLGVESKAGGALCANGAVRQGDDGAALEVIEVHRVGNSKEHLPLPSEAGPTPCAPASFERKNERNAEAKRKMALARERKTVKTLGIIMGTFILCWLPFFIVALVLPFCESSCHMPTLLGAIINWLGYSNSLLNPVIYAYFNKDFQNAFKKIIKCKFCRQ
Source text: J Pharmacol Exp Ther. 306(1): 301-309, 2003]. […] Metergoline is used as positive control.

[4] = molecular target: T2, recombinant human 5-HT2B receptor (Homo sapiens, UniProt P41595); experiment: radioligand binding to serotonin receptor 5-HT2B ([3H] Lysergic acid diethylamide); details: 10 μM ligand
T2 construct: expressed in transfected cells; host or cells: CHO-K1
Method: Screening of the disclosed compounds for potential ability to interact with serotonin receptor 5-HT2A is carried out by method of radioligand binding. For this purpose membrane species are prepared from CHO-K1 cells comprising recombinant human 5-HT2B receptor by homogenization of recombinant cells in glass homogenizer with the subsequent separation of plasmatic membranes from cell nuclei, mitochondrias and cell wreckages by differential centrifugation. […] After incubation the samples are filtered in vacuo on glass-microfiber filters G/F (Millipor, USA), filters are washed three times with cold solution of medium and radioactivity is measured by scintillation counter MicroBeta 340 (Perkin Elmer, USA). […] Ketanserin is used as positive control. The tested compounds' binding to the receptor is determined by their ability to displace the radioligand and is expressed in percent of displacement (% I). Values of % I are calculated according to the following equation:
wherein: TA—is the overall radioactivity in the presence of radioligand only, CA—is the radioactivity in the presence of radioligand and tested compound and NA—is the radioactivity in the presence of radioligand and Serotonin (10 μM).

[5] = molecular target: T3, serotonin receptor 5-HT1B (Rattus norvegicus, UniProt P28564); experiment: radioligand binding to serotonin receptor 5-HT1B ([125I] cyanopindolol); details: 10 μM ligand
T3 construct: membrane species are prepared from rat brains (Wistar) by homogenization of species of rat brain-cortices; from tissue; host or cells: rat (Wistar) brain cortex membranes
T3 sequence (P28564 whole entry): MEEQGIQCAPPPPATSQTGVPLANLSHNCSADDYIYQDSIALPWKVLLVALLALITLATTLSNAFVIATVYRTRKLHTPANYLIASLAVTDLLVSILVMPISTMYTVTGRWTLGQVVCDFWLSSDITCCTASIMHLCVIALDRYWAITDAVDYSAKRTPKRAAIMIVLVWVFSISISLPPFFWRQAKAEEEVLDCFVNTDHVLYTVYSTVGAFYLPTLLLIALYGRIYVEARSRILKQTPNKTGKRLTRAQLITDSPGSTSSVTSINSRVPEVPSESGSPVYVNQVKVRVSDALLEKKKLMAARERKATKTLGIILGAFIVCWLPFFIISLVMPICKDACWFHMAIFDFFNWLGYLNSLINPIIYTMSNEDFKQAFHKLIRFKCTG
Method: Screening of the disclosed compounds for potential ability to interact with serotonin receptor 5-HT1B is carried out by method of radioligand binding. For this purpose membrane species are prepared from rat brains (Wistar) by homogenization of species of rat brain-cortices in glass homogenizer with the subsequent separation of plasmatic membranes from cell nuclei, mitochondrias and cell wreckages by differential centrifugation. […] After incubation the samples are filtered in vacuo on glass-microfiber filters G/F (Millipor, USA), filters are washed three times with cold solution of medium and radioactivity is measured by scintillation counter MicroBeta 340 (Perkin Elmer, USA). […] Serotonin is used as positive control.
Tested compounds' binding to the receptor is determined by their ability to displace radioligand and expressed in percent of displacement (% I). Values of % I are calculated according to the following equation:
wherein: TA—is overall radioactivity in the presence of radioligand only, CA—is radioactivity in the presence of radioligand and tested compound and NA—is radioactivity in the presence of radioligand and Serotonin (10 μM).

T2 sequence (P41595 whole entry): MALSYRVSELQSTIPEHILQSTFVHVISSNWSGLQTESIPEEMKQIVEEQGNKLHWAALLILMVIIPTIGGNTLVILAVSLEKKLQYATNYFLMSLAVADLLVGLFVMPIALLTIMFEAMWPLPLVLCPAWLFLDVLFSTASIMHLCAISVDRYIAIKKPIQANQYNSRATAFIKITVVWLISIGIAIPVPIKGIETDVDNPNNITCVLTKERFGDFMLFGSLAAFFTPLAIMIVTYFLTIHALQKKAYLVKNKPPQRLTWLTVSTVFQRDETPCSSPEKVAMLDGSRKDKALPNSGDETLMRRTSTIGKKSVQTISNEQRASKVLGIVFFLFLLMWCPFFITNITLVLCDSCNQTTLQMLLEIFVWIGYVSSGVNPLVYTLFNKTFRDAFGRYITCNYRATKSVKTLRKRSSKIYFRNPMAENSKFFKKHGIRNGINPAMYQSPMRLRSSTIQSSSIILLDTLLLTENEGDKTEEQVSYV

Compound | enhancement of memory disturbed by Scopolamine (passive avoidance) (male mice of BALB/c line [1]) | anxiolytic (tranquilizing) action in elevated plus maze (male mice of BALB/c line [2]; mice BALB/c) | enhancement of memory disturbed by MK-801 (passive avoidance) (male mice of BALB/c line [3]) | memory disorders caused by Scopolamine in Morris water maze (mice) | anxiolytic (tranquilizing) action in elevated plus maze (male mice of BALB/c line [2]; doses of 0.05 and 0.1 mg/kg) | 5-HT1A % inhibition (recombinant human 5-HT1A) [%] | 5-HT2B % inhibition [4] [%] | 5-HT1B % inhibition [5] [%]
CN1CCc2c(c3ccccc3n2Cc2ccccc2)C1 [1.9(1)·1/2NDSA, bis-(5-benzyl-2-methyl-2,3,4,5-tetrahydro-1H-pyrido[4,3-b]indole) naphthalene-1,5-disulfonate] | nootropic action | anxiolytic (tranquilizing) action which is comparable with the activity of Buspirone and Lorasepam | act as nootropic |  |  |  |  | 
Cc1ccc2c(c1)c1c(n2CCc2ccc(C)nc2)CCN(C)C1.Cl.Cl [1.1.2(4-2)] | improve memory |  |  | decreasing memory disorders coused by Scopalomine | analogous action |  |  | 
CN1CCc2c(c3cc(F)ccc3n2CCc2ccccc2)C1.Cl [1.1.2(1-6)•HCl] |  |  |  |  |  | 16 | 85 | 25
